Patent publication US20030162762A1, “Novel cephalosporin compounds and process for preparing the same” (priority 2000, published 2003)
Converted amounts (≈) assume the structure as drawn. Read-outs that look alike come from different tables or passages of the source.

Key:
Assay in all cases: Minimum Inhibitory Concentration (MIC), agar dilution, standard strains
[1] = tested on: S. epidermidis R005; format: cell-based; settings: for MIC: Staphylococcus epidermidis, read-out: Minimum Inhibitory Concentration, S. epidermidis R005
Method: (§1) The effectiveness of the compound according to the present invention was determined by obtaining Minimum Inhibitory Concentration (MIC) of the compounds prepared by the above examples (Compounds I-1 to I-41) and vancomycin, which is the known compound having a potent activity against gram-positive strains, as the control drug against the standard strains. Specifically, Minimum Inhibitory Concentration was obtained by diluting the test compound according to a double dilution method, dispersing them in Mueller-Hinton agar medium, inoculating each of the test strain having 10^7 cfu (colony forming unit) per ml in an amount of 2 μl to the medium and then incubating them at 37° C. for 20 hours. From the result of Minimum Inhibitory Concentration test, it can be seen that the compound according to the present invention has a good activity against major pathogenic microorganisms, which cause hospital infection, including MRSA strains.

[2] = tested on: Staphylococcus aureus giorgio; format: cell-based; settings: for MIC: Staphylococcus aureus, read-out: Minimum Inhibitory Concentration, Staphylococcus aureus giorgio
Method: as §1

[3] = tested on: E. faecalis EFS004; format: cell-based; settings: for MIC: Enterococcus faecalis, read-out: Minimum Inhibitory Concentration, E. faecalis EFS004
Method: as §1

[4] = tested on: S. aureus 77; format: cell-based, Staphylococcus aureus; settings: for MIC: read-out: Minimum Inhibitory Concentration, S. aureus 77
Method: as §1

[5] = tested on: S. aureus K311; format: cell-based, Staphylococcus aureus; settings: for MIC: Staphylococcus aureus, read-out: Minimum Inhibitory Concentration, S. aureus K311
Method: as §1

[6] = tested on: E. faecalis L239; format: cell-based; settings: Enterococcus faecalis, L239, 20 h, read-out: Minimum Inhibitory Concentration, E. faecalis L239
Method: as §1

[7] = tested on: S. aureus 241; format: cell-based, Staphylococcus aureus; settings: Staphylococcus aureus, 241, 20 h, read-out: Minimum Inhibitory Concentration, S. aureus 241
Method: as §1

[8] = R005, Table 2, Mueller-Hinton agar, 37° C., 20 hours
[9] = Table 2, Mueller-Hinton agar, 37° C., 20 hours
[10] = EFS004, Table 2, Mueller-Hinton agar, 37° C., 20 hours
[11] = Staphylococcus aureus, 77, Table 2, Mueller-Hinton agar, 37° C., 20 hours
[12] = K311, Table 2, Mueller-Hinton agar, 37° C., 20 hours

MIC [1, 8] | MIC [2, 9] | MIC [3, 10] | MIC [4, 11] | MIC [5, 12] | Structure (SMILES) | Minimum Inhibitory Concentration, S. epidermidis R005 [1, 9] | Minimum Inhibitory Concentration, Staphylococcus aureus giorgio [2, 9] | Minimum Inhibitory Concentration, E. faecalis EFS004 [3, 9] | Minimum Inhibitory Concentration, S. aureus 77 [4, 9] | Minimum Inhibitory Concentration, S. aureus K311 [5, 9] | also measured
0.5 µg/mL (≈ 0.833 µM) | 0.016 µg/mL (≈ 0.0266 µM) | 2 µg/mL (≈ 3.33 µM) | 0.25 µg/mL (≈ 0.416 µM) | 0.5 µg/mL (≈ 0.833 µM) | Nc1cc(SC/C=C/C2=C(C(=O)O)N3C(=O)[C@@H](NC(=O)CSc4cc(Cl)nc(Cl)c4)[C@H]3SC2)nc(N)n1 [Compound I-11, (6R,7R)-3-{(E)-3-[(2,6-diamino-4-pyrimidinyl)sulfanyl]-1-propenyl}-7-( {2-[(2,6-dichloro-4-pyridinyl)sulfanyl]acetyl}amino)-8-oxo-5-thia-1-azabicyclo[4.2.0]oct-2-ene-2-carboxylic acid] | – | – | – | – | – | –
0.5 µg/mL (≈ 0.776 µM) | 0.031 µg/mL (≈ 0.0481 µM) | 0.5 µg/mL (≈ 0.776 µM) | 0.5 µg/mL (≈ 0.776 µM) | 1 µg/mL (≈ 1.55 µM) | CCSc1nc(C)cc(SC/C=C/C2=C(C(=O)O)N3C(=O)[C@@H](NC(=O)CSc4cc(Cl)nc(Cl)c4)[C@H]3SC2)n1 [Compound I-12, (6R,7R)-7-({2-[(2,6-dichloro-4-pyridinyl)sulfanyl]acetyl}amino)-3-((E)-3-{[2-(ethylsulfanyl)-6-methyl-4-pyrimidinyl]sulfanyl}-1-propenyl)-8-oxo-5-thia-1-azabicyclo[4.2.0]oct-2-ene-2-carboxylic acid] | – | – | – | – | – | –
– | – | – | – | – | Cn1c(N)n[n+]2c(SC/C=C/C3=C(C(=O)O)N4C(=O)[C@@H](NC(=O)CSc5cc(Cl)nc(Cl)c5)[C@H]4SC3)nc(N)cc12 [Compound I-14, 2,7-diamino-5-({(E)-3-[(6R,7R)-2-carboxy-7-({2-[(2,6-dichloro-4-pyridinyl)sulfanyl]acetyl}amino)-8-oxo-5-thia-1-azabicyclo[4.2.0]oct-2-en-3-yl]-2-propenyl}sulfanyl)-1-methyl-1H-[1,2,4]triazolo[1,5-c]pyrimidin-4-ium] | 0.13 µg/mL | <0.008 µg/mL | 1 µg/mL | 0.13 µg/mL | 0.25 µg/mL | –
0.5 µg/mL (≈ 0.775 µM) | 0.031 µg/mL (≈ 0.048 µM) | 1 µg/mL (≈ 1.55 µM) | 0.5 µg/mL (≈ 0.775 µM) | 0.5 µg/mL (≈ 0.775 µM) | O=C(CSc1cc(Cl)nc(Cl)c1)N[C@@H]1C(=O)N2C(C(=O)O)=C(/C=C/CSc3nc(O)cc(NCCO)n3)CS[C@H]12 [Compound I-15, (6R,7R)-7-({2-[(2,6-dichloro-4-pyridinyl)sulfanyl]acetyl}amino)-3-[(E)-3-({4-hydroxy-6-[(2-hydroxyethyl)amino]-2-pyrimidinyl]sulfanyl}-1-propenyl]-8-oxo-5-thia-1-azabicyclo[4.2.0]oct-2-ene-2-carboxylic acid] | – | – | – | – | – | –
– | – | – | – | – | CC[n+]1c(N)cc(N)nc1SC/C=C/C1=C(C(=O)O)N2C(=O)[C@@H](NC(=O)CSc3cc(Cl)nc(Cl)c3)[C@H]2SC1 [Compound I-16, 4,6-diamino-2-({(E)-3-[(6R,7R)-2-carboxy-7-({2-[(2,6-dichloro-4-pyridinyl)sulfanyl]acetyl}amino)-8-oxo-5-thia-1-azabicyclo[4.2.0]oct-2-en-3-yl]-2-propenyl}sulfanyl)-1-ethylpyrimidin-1-ium] | 0.13 µg/mL | <0.008 µg/mL | 0.5 µg/mL | 0.13 µg/mL | 0.5 µg/mL | –
– | – | – | – | – | Nc1nc(SC/C=C/C2=C(C(=O)O)N3C(=O)[C@@H](NC(=O)CSc4cc(Cl)nc(Cl)c4)[C@H]3SC2)c2c([n+]1N)CCC2 [Compound I-17, 1,2-diamino-4-({(E)-3-[(6R,7R)-2-carboxy-7-({2-[(2,6-dichloro-4-pyridinyl)sulfanyl]acetyl}amino)-8-oxo-5-thia-1-azabicyclo[4.2.0]oct-2-en-3-yl]-2-propenyl}sulfanyl)-6,7-dihydro-5H-cyclopenta[d]pyrimidin-1-ium] | 0.25 µg/mL | <0.008 µg/mL | 0.5 µg/mL | 0.25 µg/mL | 0.5 µg/mL | –
– | – | – | – | – | Nc1cc(N)[n+](C/C=C/C2=C(C(=O)O)N3C(=O)[C@@H](NC(=O)CSc4cc(Cl)nc(Cl)c4)[C@H]3SC2)cn1 [Compound I-18] | 0.25 µg/mL | 0.016 µg/mL | 1 µg/mL | 0.25 µg/mL | 1 µg/mL | –
– | – | – | – | – | CN[C@H](CC(C)C)C(=O)N[C@H]1C(=O)N[C@@H](CC(N)=O)C(=O)N[C@H]2C(=O)N[C@H]3C(=O)N[C@H](C(=O)N[C@H](C(=O)O)c4cc(O)cc(O)c4-c4cc3ccc4O)[C@H](O)c3ccc(c(Cl)c3)Oc3cc2cc(c3O[C@@H]2O[C@H](CO)[C@@H](O)[C@H](O)[C@H]2O[C@H]2C[C@](C)(N)[C@H](O)[C@H](C)O2)Oc2ccc(cc2Cl)[C@H]1O [Vancomycin, vancomycin, reference compound] | 1 µg/mL | 1 µg/mL | – | 1 µg/mL | – | MIC [6]: 2 µg/mL (≈ 1.38 µM); MIC ([1]; R005, 20 h): 1 µg/mL (≈ 0.69 µM); MIC ([2]; 20 h): 1 µg/mL (≈ 0.69 µM); MIC ([3]; EFS004, 20 h): 2 µg/mL (≈ 1.38 µM); MIC ([4]; Staphylococcus aureus, 77, 20 h): 1 µg/mL (≈ 0.69 µM); MIC ([5]; K311, 20 h): 2 µg/mL (≈ 1.38 µM); MIC [7]: 2 µg/mL (≈ 1.38 µM)
